Active and inactive are the calls of the source.
Key:
[1] = molecular target: T1, Short transient receptor potential channel 4 (Mus musculus, UniProt Q9QUQ5); assay: mouse TRPC4 channel activators, dose response, cell-based, HEK293 TRPC4/mu-opioid, Fluo-4 calcium (AID 434937); format: functional
T1 sequence (Q9QUQ5 whole entry): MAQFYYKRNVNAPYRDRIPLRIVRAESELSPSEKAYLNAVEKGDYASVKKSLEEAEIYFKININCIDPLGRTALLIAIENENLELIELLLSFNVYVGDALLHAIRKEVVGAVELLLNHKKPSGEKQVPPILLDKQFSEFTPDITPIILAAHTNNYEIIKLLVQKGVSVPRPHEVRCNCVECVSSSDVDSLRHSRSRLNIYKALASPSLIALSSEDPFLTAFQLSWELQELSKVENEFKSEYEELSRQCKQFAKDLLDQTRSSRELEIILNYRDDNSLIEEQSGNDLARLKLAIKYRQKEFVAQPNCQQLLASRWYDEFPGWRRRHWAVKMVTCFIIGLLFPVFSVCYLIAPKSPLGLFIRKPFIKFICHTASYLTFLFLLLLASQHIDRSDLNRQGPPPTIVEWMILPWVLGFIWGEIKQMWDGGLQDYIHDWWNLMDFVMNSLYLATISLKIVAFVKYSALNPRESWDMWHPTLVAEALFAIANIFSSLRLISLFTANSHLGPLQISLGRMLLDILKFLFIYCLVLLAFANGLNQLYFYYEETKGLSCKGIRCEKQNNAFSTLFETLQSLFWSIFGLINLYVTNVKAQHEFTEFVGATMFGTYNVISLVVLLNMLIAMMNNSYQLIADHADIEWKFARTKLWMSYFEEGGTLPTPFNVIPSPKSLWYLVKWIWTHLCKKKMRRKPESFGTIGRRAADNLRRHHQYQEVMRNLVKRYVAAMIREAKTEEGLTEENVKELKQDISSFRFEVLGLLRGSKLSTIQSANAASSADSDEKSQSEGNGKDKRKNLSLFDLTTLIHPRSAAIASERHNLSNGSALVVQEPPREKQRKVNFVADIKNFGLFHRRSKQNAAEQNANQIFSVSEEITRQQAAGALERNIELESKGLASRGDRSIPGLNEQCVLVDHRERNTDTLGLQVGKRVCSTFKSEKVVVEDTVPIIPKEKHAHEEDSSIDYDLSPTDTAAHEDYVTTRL

[2] = cytotoxicity in HEK-293T cells, dose response, cytotoxicity control for TCR NF-kB inhibitor project, luminescence, T-cell screen hits (AID 489026); format: functional, cell-based;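 further: cells exposed to compound about 14 hours before the viability readout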
[3] = C. albicans growth with fluconazole, confirmation, fluorescence, retest (AID 2467); format: functional, cell-based
[4] = NIH-3T3 fibroblast cytotoxicity, dose response, cytotoxicity control, cell-based, fluorescence, Alamar Blue, secondary assay (AID 2327); format: functional;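 further: NIH-3T3 mouse fibroblasts cultured with fluconazole at 8 µg/mL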
[5] = molecular target: T2, Zinc finger protein mex-5 (Caenorhabditis elegans, UniProt Q9XUB2); assay: MEX-5/TCR-2 RNA interaction inhibitors, dose response, biochemical, C. elegans, fluorescence polarization (AID 1960)
T2 sequence (Q9XUB2 whole entry): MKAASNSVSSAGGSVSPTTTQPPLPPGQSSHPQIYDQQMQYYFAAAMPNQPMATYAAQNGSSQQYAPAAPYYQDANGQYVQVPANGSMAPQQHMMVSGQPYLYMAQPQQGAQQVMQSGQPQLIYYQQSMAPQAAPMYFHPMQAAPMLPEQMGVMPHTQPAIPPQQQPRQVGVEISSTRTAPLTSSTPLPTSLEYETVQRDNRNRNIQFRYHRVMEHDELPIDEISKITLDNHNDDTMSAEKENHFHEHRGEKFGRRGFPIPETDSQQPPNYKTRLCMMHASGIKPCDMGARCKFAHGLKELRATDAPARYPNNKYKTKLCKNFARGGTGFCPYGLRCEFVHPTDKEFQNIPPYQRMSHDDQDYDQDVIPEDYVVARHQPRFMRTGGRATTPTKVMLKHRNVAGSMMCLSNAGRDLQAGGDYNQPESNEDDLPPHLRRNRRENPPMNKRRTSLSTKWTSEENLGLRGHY

[6] = molecular target: T3, Ubiquitin-conjugating enzyme E2 N (Homo sapiens, UniProt P61088); format: functional;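 further: Dose-response confirmation in a TR-FRET assay detecting UBC13-driven polyubiquitin chain formation, inhibition measured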
T3 sequence (P61088 whole entry): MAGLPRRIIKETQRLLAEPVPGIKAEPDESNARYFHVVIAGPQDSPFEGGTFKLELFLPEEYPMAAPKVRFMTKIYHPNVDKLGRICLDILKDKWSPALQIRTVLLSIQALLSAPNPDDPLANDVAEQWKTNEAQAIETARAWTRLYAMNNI

[7] = cytotoxicity toward NIH3T3 fibroblasts, dose response, counter-screen, cell-based, ATP luminescence, mouse fibroblasts (AID 2010); format: functional;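 further: cells exposed to compound for about 90 hours before reading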
[8] = inhibitors of intracellular T. cruzi replication, confirmation, NIH3T3 host cells, beta-gal luminescence (AID 2044); format: functional, cell-based;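 further: intracellular parasites grown in NIH/3T3 mouse fibroblasts as host cells; luminescent beta-galactosidase reporter signal from transgenic T. cruzi replicating inside host cells; inhibitors lower the luminescence signal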
[9] = molecular target: T4, RNA-binding protein pos-1 (Caenorhabditis elegans, UniProt G5EF15); assay: inhibitors of POS-1/mex-3 RNA binding, dose response, biochemical, fluorescence polarization (AID 1964);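 further: purified POS-1 fused to maltose binding protein made in E. coli; potency of compounds blocking POS-1 binding to fluorescent RNA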
T4 sequence (G5EF15 whole entry): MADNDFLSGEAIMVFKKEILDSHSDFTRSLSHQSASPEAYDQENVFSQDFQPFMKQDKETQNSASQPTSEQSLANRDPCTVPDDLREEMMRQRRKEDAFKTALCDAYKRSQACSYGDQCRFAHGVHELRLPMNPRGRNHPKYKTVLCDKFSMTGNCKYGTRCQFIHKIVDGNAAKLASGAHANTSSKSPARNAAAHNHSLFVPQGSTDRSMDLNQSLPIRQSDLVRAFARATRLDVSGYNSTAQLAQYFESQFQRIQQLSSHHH

[10] = Luminescence Cell-Based Dose Response HTS to Identify Inhibitors of 5'UTR Stem-Loop Driven Prion Protein mRNA Translation in H4 Neuroglioblastoma Cells. [Related pubchem assays: 1827 (Project Summary), 1813 (Primary HTS)]; format: functional
[11] = inhibitors of SNCA 5'UTR-driven reporter translation, confirmation, H4 neuroglioma cells, luminescence (AID 1988); format: functional, cell-based
[12] = inhibitors of firefly luciferase expression or activity, dose response, H4 neuroglioma cells, luminescence (AID 1990); format: functional, cell-based
[13] = Luminescence Cell-Based Dose Retest to Confirm Inhibitors of Cancer Stem Cells. [Related pubchem assays (depositor defined):AID2717, AID2721]; format: functional; details: Homo sapiens
[14] = molecular target: T5, Corticotropin-releasing factor receptor 2/Corticotropin-releasing factor-binding protein (Homo sapiens, UniProt P24387+Q13324); assay: activators of CRF receptor 2 with binding protein – uHTS hits, confirmation (AID 602473); format: functional; details: read-out: EC50_Mean
T5 sequence (Q13324 whole entry): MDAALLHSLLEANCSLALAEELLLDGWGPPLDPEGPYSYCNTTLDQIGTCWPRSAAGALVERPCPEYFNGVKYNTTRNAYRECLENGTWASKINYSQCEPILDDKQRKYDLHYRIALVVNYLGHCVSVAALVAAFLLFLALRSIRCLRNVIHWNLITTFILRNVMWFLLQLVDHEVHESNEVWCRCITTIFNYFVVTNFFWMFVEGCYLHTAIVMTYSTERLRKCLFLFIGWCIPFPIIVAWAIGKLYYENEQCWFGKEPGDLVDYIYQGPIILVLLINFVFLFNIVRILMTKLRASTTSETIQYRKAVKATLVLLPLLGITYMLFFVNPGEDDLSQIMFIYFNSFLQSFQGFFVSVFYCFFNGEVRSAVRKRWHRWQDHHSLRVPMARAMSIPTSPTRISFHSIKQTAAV
T5 sequence (P24387 whole entry): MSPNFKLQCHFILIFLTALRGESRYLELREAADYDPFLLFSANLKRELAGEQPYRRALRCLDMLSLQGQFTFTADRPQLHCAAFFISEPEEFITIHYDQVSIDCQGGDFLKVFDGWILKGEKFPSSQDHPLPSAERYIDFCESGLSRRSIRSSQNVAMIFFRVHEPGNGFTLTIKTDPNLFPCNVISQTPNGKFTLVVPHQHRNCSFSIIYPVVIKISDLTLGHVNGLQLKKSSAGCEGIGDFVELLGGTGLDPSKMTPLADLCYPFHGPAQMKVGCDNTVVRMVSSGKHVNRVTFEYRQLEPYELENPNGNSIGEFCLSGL

[15] = molecular target: T6, Microphthalmia-associated transcription factor (Homo sapiens, UniProt O75030); assay: TRPM1 promoter luciferase signal decrease, dose response, MITF inhibitor project, cell-based, SK-MEL-5, cherry-picked, set 3 (AID 493073); format: functional
T6 sequence (O75030 whole entry): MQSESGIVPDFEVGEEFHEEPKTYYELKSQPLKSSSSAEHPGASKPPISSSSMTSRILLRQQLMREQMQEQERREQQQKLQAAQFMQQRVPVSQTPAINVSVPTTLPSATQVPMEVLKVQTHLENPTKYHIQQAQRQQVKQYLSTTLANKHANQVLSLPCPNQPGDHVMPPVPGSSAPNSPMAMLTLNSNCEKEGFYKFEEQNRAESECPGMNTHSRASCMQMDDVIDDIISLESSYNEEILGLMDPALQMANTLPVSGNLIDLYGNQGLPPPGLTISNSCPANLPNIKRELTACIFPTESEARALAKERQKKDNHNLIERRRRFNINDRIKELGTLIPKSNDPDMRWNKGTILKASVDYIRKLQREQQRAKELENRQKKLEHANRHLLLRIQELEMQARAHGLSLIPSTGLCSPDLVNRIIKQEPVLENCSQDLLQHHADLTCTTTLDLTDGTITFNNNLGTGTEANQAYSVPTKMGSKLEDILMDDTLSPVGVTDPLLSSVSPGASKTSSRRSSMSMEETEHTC

[16] = molecular target: T7, Protein skinhead-1 (Caenorhabditis elegans, UniProt P34707); format: functional
T7 sequence (P34707 whole entry): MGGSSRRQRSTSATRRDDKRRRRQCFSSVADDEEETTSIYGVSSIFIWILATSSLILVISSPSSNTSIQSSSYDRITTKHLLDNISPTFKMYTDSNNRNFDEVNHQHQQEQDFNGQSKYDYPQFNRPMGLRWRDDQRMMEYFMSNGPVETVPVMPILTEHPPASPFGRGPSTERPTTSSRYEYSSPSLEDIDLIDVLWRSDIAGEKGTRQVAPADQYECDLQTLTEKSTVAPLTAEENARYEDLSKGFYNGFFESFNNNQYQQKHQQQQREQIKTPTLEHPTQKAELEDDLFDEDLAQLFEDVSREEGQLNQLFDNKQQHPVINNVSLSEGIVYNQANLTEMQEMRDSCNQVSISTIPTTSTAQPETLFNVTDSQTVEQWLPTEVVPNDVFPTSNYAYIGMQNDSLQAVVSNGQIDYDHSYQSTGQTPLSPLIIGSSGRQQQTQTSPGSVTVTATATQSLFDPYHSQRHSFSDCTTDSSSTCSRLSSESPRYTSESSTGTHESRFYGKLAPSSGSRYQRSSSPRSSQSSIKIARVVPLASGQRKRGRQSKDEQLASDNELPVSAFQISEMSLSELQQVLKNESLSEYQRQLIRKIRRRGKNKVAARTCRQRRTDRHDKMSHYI

With `CN1CCN(Cc2nc3c(c(=O)[nH]c(=O)n3C)n2Cc2c(F)cccc2Cl)CC1` the EC50 [1] was 1.68 µM (active).
In the case of `CCOc1ccccc1C1CC(=O)Nc2cc3c(cc21)OCO3` (configuration not stated), the IC50 [2] is reported as > 80 µM (inactive).
In the case of `Cc1ccc(C)c(SCC(=O)Nc2nnc(-c3ccccc3)o2)c1`, the EC50 [3] is reported as 2.1 µM (active) and the EC50 [4] is reported as > 150 µM (inactive).
In the case of `COc1cc(C(CCN2CCCC2)c2c(OC)cc(OC)c3c(-c4ccccc4)cc(=O)oc23)cc(OC)c1OC` (configuration not stated), the EC50 [5] is reported as > 300 µM (not active), the IC50 [6] is reported as > 20 µM (inactive) and the EC50 [7] is reported as 49.2 µM (active). The EC50 [8] was 1.7 µM (active) and the EC50 [9] was > 300 µM (not active).
With `COc1ccc([C@H]2CC(=O)C=C(c3c(OC)cccc3OC)C2)cc1` the IC50 [2] was > 80 µM (inactive).
For `COc1cccc(OC)c1C1=NCC(=O)Nc2c1oc1ccc(Br)cc21`, the EC50 [10] was 0.566 µM (active), the IC50 [2] was 71.8 µM (inactive) and the EC50 [11] was 0.267 µM (active). For the same compound, the EC50 [12] was 0.752 µM (active).
With `COc1ccc(-c2sc3ccccc3c2C#Cc2cncn2C)cc1` the IC50 [6] was > 20 µM (inactive) and the AC50 [13] was 2.69 µM (active).
With `Cc1ccc(NS(=O)(=O)c2ccc(CCC(=O)NCCO)cc2)cc1` the EC50 [3] was > 38 µM (not active) and the EC50 [4] was > 150 µM (inactive).
In the case of `O=C(COc1cc(Cl)c(Cl)cc1Cl)NCCc1ccccn1`, the EC50 [1] is reported as 10.6 µM (active).
For `CCCCC(=O)NC(=S)NNC(=O)c1ccc(Cl)cc1Cl`, the EC50 [14] was 6.56 µM (active) and the EC50 [1] was 5.31 µM (active).
For `O=c1c2ccccc2nc(-c2ccc(Cl)cc2Cl)n1O`, the EC50 [3] was 2.06 µM (active) and the EC50 [4] was > 160 µM (inactive).
For `NC(=O)C1CCCN(CC(O)COCc2ccc(Cl)cc2)C1` (configuration not stated), the EC50 [1] was 0.211 µM (active).
For `N=c1n(CC(=O)c2ccc([N+](=O)[O-])cc2)c2ccccc2n1Cc1ccccc1Cl`, the AC50 [15] was 4.03 µM (active).
For `Cc1ccc(C2CC(C(F)(F)F)n3nc(C(=O)NCc4c(C)nn(C)c4C)c(Cl)c3N2)cc1` (configuration not stated), the IC50 [16] was > 100 µM (inactive) and the AC50 [15] was 8.89 µM (active).
In the case of `Cc1cc(C)c(CN2CCN(Cc3ccc(C)o3)C(CCO)C2)c(-n2cccn2)c1` (configuration not stated), the EC50 [1] is reported as 3.35 µM (active).
For `CN(C)C(CNC(=O)c1ccc2ccccc2n1)c1ccccc1` (configuration not stated), the EC50 [1] was 0.267 µM (active).
For `Cc1ccccc1Cn1c(CN2CCc3ccccc3C2)nc2c1c(=O)n(C)c(=O)n2C`, the EC50 [1] was 5.96 µM (active).
With `O=C(NCc1ccccc1)C1c2ccccc2Oc2ccccc21` the EC50 [3] was 2.43 µM (active) and the EC50 [4] was > 150 µM (inconclusive).

Reference: ChEMBL document CHEMBL1201862, “PubChem BioAssay data set” (2004)
